From PMC7988117, “OMN6 a novel bioengineered peptide for the treatment of multidrug resistant Gram negative bacteria” (Scientific Reports, 2021)
Ends that are not written are not given here.

Key:
[1] = tested on: Escherichia coli; assay: VITEK 2 antimicrobial sensitivity characterization; assay type: cell-based; details: VITEK 2 system, CLSI ranges
Procedure: (§1) This experiment was conducted by Omnix Medical, by JMI Laboratories (North Liberty, IA, USA) and by Aptuit (Verona) S.r.l. (Italy), an Evotec Company. All studies were performed according to Clinical and Laboratory Standards Institute guidelines[30] for the application of the broth microdilution method. Reference strains from American Type Culture Collection (ATCC) and clinical isolates from the Evotec EvostrAIn and the JMI Laboratories SENTRY surveillance program culture collections (Acinetobacter baumannii: ACC 00445, ACC 00527, ACC 00535, ATCC 17978, ATCC 19606, ATCC BAA-1793, ACC 01076, ACC 01077, NCTC 13420, JMI #1088100 and JMI #1001007; Klebsiella pneumoniae: ATCC 43816 and ATCC BAA-1705; Escherichia coli: ACC 01001 and ATCC 25922; Staphylococcus aureus: ATCC 29213, ATCC BAA-44 and ATCC 33591; Bacillus cereus: ATCC 14579; Enterococcus faecalis: ATCC 29212; Enterococcus faecium: ATCC BAA-2319) were used. The antimicrobial activity of OMN6 was determined by 12 serial two-fold dilutions in water of the 100-fold highest compound solution; 1 µL of each well was transferred into 96 microtiter plates (final concentration: 256–0.12 µg/mL). In most strains, same procedure was used to determine the colistin antimicrobial activity (final concentration: 32–0.015 µg/mL). Bacterial strains were sub-cultured on the agar plates and incubated for 18–24 h at 35 ± 2 °C in ambient air. Following incubation, the inoculum was prepared from isolated colonies and adjusted to 0.5 McFarland turbidity standard (1 to 2 × 10^8 colony-forming units/mL) in 0.9% saline. Bacterial suspension was then diluted 1:200 in Muller-Hinton broth (from BD; Becton, Dickinson and Company, Franklin Lakes, NJ, USA) and within 15 min 100 µL/well were dispensed. Growth-control wells and sterility-check wells (uninoculated well) were present in each plate. Plates were incubated for 18–24 h at 35 ± 2 °C in ambient air. […] The antimicrobial activity to other antibiotics on most bacterial strains was determined by Evotec using the antimicrobial sensitive test from the VITEK 2 automated microbiology system (bioMérieux SA, Marcy l'Etoile, France; data presented in Table S1), or by ATCC according to CLSI (Clinical and Laboratory Standards Institute) guidelines[30]
(§2) Table S1. Supplementary information about the resistance pattern of 14 bacterial strains used in the Minimum Inhibitory Concentration study presented in Table 1. The resistance pattern of the different bacterial isolates was characterized by broth microdilution studies (for colistin) or with the VITEK 2 system (for the other antibiotics).

[2] = tested on: Acinetobacter baumannii; assay: VITEK 2 antimicrobial sensitivity characterization; assay type: cell-based; details: VITEK 2 system, CLSI ranges
Procedure: as §1, §2

[3] = tested on: Klebsiella pneumoniae; assay: VITEK 2 antimicrobial sensitivity characterization; assay type: cell-based; details: VITEK 2 system, CLSI ranges
Procedure: as §1, §2

[4] = tested on: A. baumannii BAA-1793; details: determined by ATCC according to CLSI guidelines, ref ATCC; cited from earlier work
Description: Supplement 41598_2021_86155_MOESM1_ESM.docx, table 3: Table S3. Supplementary information about the resistance pattern of the bacterial strain A. baumannii BAA-1793 used in the Minimum Inhibitory Concentration study presented in Table 1.

[5] = target: T1, Proteinase-K (Parengyodontium album, UniProt P06873); assay: Peptide stability to Proteinase-K (SDS-PAGE); assay type: in vitro ADME; details: 10 µg peptide with 5 or 20 ng Proteinase-K (0.16 or 0.66 µg/mL), 2 h, 37 °C; 15% acrylamide SDS-PAGE, Coomassie stain
T1 construct: purchased Sigma-Aldrich
T1 sequence (P06873 106-384): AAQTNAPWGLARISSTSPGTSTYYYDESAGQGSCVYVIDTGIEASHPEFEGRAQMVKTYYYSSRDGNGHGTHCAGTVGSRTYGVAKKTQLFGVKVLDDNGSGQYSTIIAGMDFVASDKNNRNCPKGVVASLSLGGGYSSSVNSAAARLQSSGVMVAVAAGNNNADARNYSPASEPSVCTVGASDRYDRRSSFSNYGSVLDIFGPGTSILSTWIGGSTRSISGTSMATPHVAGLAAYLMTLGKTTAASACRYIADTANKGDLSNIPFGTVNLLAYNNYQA
Procedure: 10 µg of synthetic cecropin A (Genscript, Piscataway, NJ, USA), OMN6, or bovine serum albumin (BSA; Sigma-Aldrich, St. Louis, MO, USA) were incubated with 5 or 20 ng Proteinase-K (Sigma-Aldrich; final treatment concentration of 0.16 or 0.66 µg/mL respectively) for 2 h at 37 °C, and separated on a 15% acrylamide gel (Bio-Rad, Hercules, CA, USA) by SDS-PAGE. The gel was then stained with Coomassie dye and excess color was removed over-night.

[6] = tested on: Staphylococcus aureus; assay: VITEK 2 antimicrobial sensitivity characterization; assay type: cell-based; details: VITEK 2 system, CLSI ranges
Procedure: as §1, §2

[7] = tested on: HEK293T cells; assay type: cell-based
Procedure: HEK-293T17 cells (ATCC CRL-1573) were purchased from ATCC and cultured to 80% confluency according to the ATCC culture method, using high-glucose and L-Glutamine Dulbecco's Modified Eagle Medium (DMEM) medium (ATCC catalog number 30-2002) supplemented with 10% fetal bovine serum and 1% Penicillin–Streptomycin solution (all from Biological Industries). For the experiment purposes, 30,000 cells were transferred to a 96-well plate (experiment plate) in a final volume of 100 µL of medium. The experiment plate was incubated at 5% CO2 and 37 °C for approximately 18 h. After 18 h, medium was discarded, and cells were co-incubated with OMN6, Melittin (Sigma-Aldrich) or dimethyl sulfoxide (DMSO; MP Biomedical LLC, Solon, OH, USA) that were prepared in new medium at desired concentrations. The experiment plate was incubated at 5% CO2 and 37 °C for 24 h. Then, glutaraldehyde at a final concentration of 0.5% was added in all wells for 10 min for cell fixation. After washing the plate 3 times with DDW, the experiment plate was dried overnight. Then, cells were washed with 0.1 M Borate buffer (pH = 8.5) for 1 min. 100 µL Methylene Blue diluted in the same Borate buffer was added to all wells for 1 h. Wells were washed with DDW and plate was dried overnight. Color extraction was executed by adding 0.1 M HCl. After an incubation at 37 °C for 1 h, cell survival was determined via absorbance at 620 nm using a microplate reader.

| Compound | VITEK characterization (resistance range) ([1]; E. coli ACC 01001) | VITEK characterization (resistance range) ([1]; E. coli ATCC 25922) | VITEK characterization (resistance range) ([2]; A. baumannii ACC 00445) | VITEK characterization (resistance range) ([2]; A. baumannii ACC 00527) | VITEK characterization (resistance range) ([2]; A. baumannii ACC 00535) | VITEK characterization (resistance range) ([2]; A. baumannii ATCC 17978) | VITEK characterization (resistance range) ([2]; A. baumannii ATCC 19606) | VITEK characterization (resistance range) ([3]; K. pneumoniae ATCC 43816) | VITEK characterization (resistance range) ([3]; K. pneumoniae ATCC BAA-1705) | Resistance pattern [4] | Stability after exposure to Proteinase-K [5] | VITEK characterization (resistance range) ([6]; S. aureus ATCC 29213) | VITEK characterization (resistance range) ([6]; S. aureus ATCC 33591) | VITEK characterization (resistance range) ([2]; A. baumannii ACC 01076) | VITEK characterization (resistance range) ([2]; A. baumannii ACC 01077) | VITEK characterization (resistance range) ([2]; A. baumannii NCTC 13420) | Cytotoxicity on HEK293T cells [7] [%] |
| --- | --- | --- | --- | --- | --- | --- | --- | --- | --- | --- | --- | --- | --- | --- | --- | --- | --- |
| CC(C)(O/N=C(\C(=O)N[C@@H]1C(=O)N2C(C(=O)[O-])=C(C[n+]3ccccc3)CS[C@H]12)c1csc(N)n1)C(=O)O [CAZ, ceftazidime] | S | S | R | R | R | S | I | S | R | R |  |  |  |  |  |  |  |
| KWKLFKKIEKVGQNIRDGIIKAGPAVAVVGQATQIAK-NH2 [Cecropin A] |  |  |  |  |  |  |  |  |  |  | major degradation |  |  |  |  |  |  |
| CO/N=C(\C(=O)N[C@@H]1C(=O)N2C(C(=O)O)=C(COC(C)=O)CS[C@H]12)c1csc(N)n1 [CTX, cefotaxime] | S | S | R | R | R | S | I | S | R | R |  |  |  |  |  |  |  |
| C[C@@H](O)[C@H]1C(=O)N2C(C(=O)O)=C(SCCN=CN)C[C@H]12 [IMP, imipenem] | S | S | R | R | I | S | S | S | R | R |  | S | R | R | R | I |  |
| C[S+](C)[O-] [DMSO, dimethyl sulfoxide] |  |  |  |  |  |  |  |  |  |  |  |  |  |  |  |  | > 90 |
